Test results from patent publication US10772859B2, “Methods of targeting APE/Ref-1 to inhibit hypoxia signaling genes” (Indiana University Research and Technology Corporation, priority 2015, dated 2020).
Like-named read-outs stand apart in the source and are kept apart here.

Assays:
[1] = system: Pa03C and Panc10.05 tumor spheroids with or without CAFs; assay: 3D co-culture tumor spheroid model (Example 1); format: cell-based, human; settings: for tumor cell killing (reduction in area of tumor cells): 3D spheroids, 12 days in culture, with and without CAFs
Procedure: 3D Co-Cultures: Ultra low attachment 96-well plates (Corning Inc., Life Sciences) were used to generate 3-dimensional tumor spheroids in the presence and absence of CAFs (75 μL/well) as described previously (Sempere, Gunn et al. (2011) Cancer Biol Ther 12(3): 198-207; Arpin, Mac et al. (2015) Molecular Cancer Therapeutics). Cells were stably transduced with EGFP (green) or TdTomato (red) as indicated to preserve the genetic characteristics of the low passage patient cells (Jones, Zhang et al. (2008) Science 321(5897): 1801-1806). Cells were re-suspended in colorless DMEM growth media containing 3% Reduced Growth Factor Matrigel (RGF, BD Biosciences) and 5% FBS. Following plating, cells were treated on Days 4 and 8 with media containing 5% serum, 3% RGF Matrigel, and inhibitors as indicated. On Day 12, spheroids were analyzed using Thermo ArrayScan high-content imaging system (Lovborg, Nygren et al. (2004) Mol Cancer Ther 3(5): 521-526; Lindblom, Berg et al. (2012) Toxicol Pathol 40(1): 18-32). Images of 3D structures were captured by ArrayScan using a 2.5× objective for TdTomato and EGFP; then 2D projections were processed to quantify differences in total intensity and total area of both CAFs and tumor.

[2] = system: PDAC tumor spheroids (Pa03C and Panc10.05) alone and with CAFs; assay: Three-dimensional growth assay, PDAC/CAF co-culture (Example 2); format: cell-based, human; settings: tumor spheroids alone and in culture with CAFs
Procedure: Ninety-six well plates were coated with 1% Noble Agar (Difco) (50 μL/well). mCherry-labeled PDAC cells and EGFP-labeled CAFs were resuspended in normal growth media containing 3% Matrigel (BD Biosciences) at a cell ratio of 1:4 (tumor:CAF) and plated on top of solidified 1% Noble Agar. Cells were fed on Days 4 and 8 following plating with media containing 5% serum+3% Matrigel+investigational drug.
Utilizing APX3330, JAK 2 inhibitor (Ruxolitinib (INCB018424; Fisher Scientific) (“RUX”)) and lead STATS inhibitors (PG-S3-001, DR-4-89), the effects of Ref-1/STAT3 inhibition in PDAC low passage patient-derived cell lines (Pa03C and Panc10.05) were evaluated. The response using proliferation-based 3D co-culture assays and statistical analyses to assess synergy, additively or antagonism was evaluated using the Chou-Talalay method.
This Example was designed to visualize the same live co-cultures over 12 days with images captured by Thermo ArrayScan at 8 and 12 days of co-culture. Cancer and stromal cells in this model were marked with distinct fluorescent proteins (mCherry for tumor and EGFP for CAFs) so that the cell populations could be differentiated and quantified. […] In this way, drug efficacy of PDAC cells could be evaluated in co-culture with CAFs, which more faithfully mimics the natural in vivo PDAC environment.

CA9 protein = assay: Western blot of CA9 protein in 3D tumor spheroid cultures with or without CAFs; format: cell-based, human; settings: Pa03C 3D tumor cultures, in the presence and absence of CAF cells
Procedure: Western Blot Analysis: Western blots were performed as described in Wang, Luo et al. (2004) Mol Cancer Ther 3(6): 679-686; Fishel, He et al. (2008) DNA Repair (Amst) 7(2): 177-186; Fishel, Colvin et al. (2010) Hematol 38(12): 1178-1188; Jiang, Zhou et al. (2010) Cancer Investigation 28(9): 885-895; Fishel, Jiang et al. (2011) Molecular Cancer Therapeutics 10(9): 1698-1708; Cardoso, Jiang et al. (2012) PLoS ONE 10: e47462; Fishel, Wu et al. (2015) J Biol Chem 290(5): 3057-3068, with antibodies for APE1/Ref-1 (Novus Biologicals; Littleton, Colo.), HIF1α (GeneTex; Irvine, Calif.), STAT1, STATS, (Cell Signaling; Danvers, Mass.), NFκB (abcam; Cambridge, Mass.), CA9 (Santa Cruz; Dallas, Tex.) and Vinculin (Sigma; St. Louis, Mo.).
3D Co-Cultures: Ultra low attachment 96-well plates (Corning Inc., Life Sciences) were used to generate 3-dimensional tumor spheroids in the presence and absence of CAFs (75 μL/well) as described previously (Sempere, Gunn et al. (2011) Cancer Biol Ther 12(3): 198-207; Arpin, Mac et al. (2015) Molecular Cancer Therapeutics). […] On Day 12, spheroids were analyzed using Thermo ArrayScan high-content imaging system (Lovborg, Nygren et al. (2004) Mol Cancer Ther 3(5): 521-526; Lindblom, Berg et al. (2012) Toxicol Pathol 40(1): 18-32). […]

Pa02C cells = assay: Alamar Blue cell proliferation in monolayer under hypoxia; format: cell-based, human; settings: hypoxia (0.2%) for six days, single agent
Procedure: Cell Proliferation: PDAC cell proliferation in monolayer was measured using the Alamar Blue assay as described in Fishel, Wu et al. (2015) J Biol Chem 290(5): 3057-3068. Cells treated with APX3330 and SLC-0111 were exposed to hypoxia for six days followed by addition of Alamar Blue reagent (Invitrogen) and subsequent fluorescence analysis. Fold change refers to the fluorescence reading for cells treated with indicated inhibitors compared to cells growing in normal media.

CA9 mRNA [3] = settings: Panc-1 and MIA-PaCa2 cells exposed to hypoxia, previously shown; cited from earlier work
CA9 mRNA [4] = assay: qRT-PCR of CA9 mRNA levels under hypoxia; format: cell-based, human; settings: 24 hours of exposure to APX3330 and 1% oxygen
Procedure: qRT-PCR Reactions: qRT-PCR was used to measure the mRNA expression levels of CA9 as described in Fishel, Jiang et al. (2011) Molecular Cancer Therapeutics 10(9): 1698-1708. Cells were treated with APE1/Ref-1 siRNA or increasing amounts of APX3330 in the presence or absence of hypoxia (1% and 0.2% O2) for 24 hours, then total RNA was extracted from cells using the QiagenRNeasy Mini kit (Valencia, Calif.). First-strand cDNA synthesis and quantitative PCR were performed as described in Fishel, Vasko et al. (2007) Mutat Res 614(1-2): 24-36; Jiang, Guo et al. (2009) DNA Repair (Amst) 8(11): 1273-1282; Fishel, Jiang et al. (2011) Molecular Cancer Therapeutics 10(9): 1698-1708. The relative quantitative mRNA level was determined using the comparative Ct method using 18S rRNA, RPLPO, and B2M as reference genes (Livak and Schmittgen (2001) Methods 25(4): 402-408; Fishel, Vasko et al. (2007) Mutat Res 614(1-2): 24-36; Jiang, Guo et al. (2009) DNA Repair (Amst) 8(11): 1273-1282). The primers for CA9, 18S, RPLPO, and B2M are commercially available (Applied Biosystems).

PDAC = assay: Single-agent STAT3 inhibitor activity in vivo (FIG. 14)

## NS(=O)(=O)c1ccc(NC(=O)Nc2ccc(F)cc2)cc1 [SLC-0111]
[1]; 3D co-culture, especially CAF19 with Pa03C
  cell killing in tumor cells versus CAFs: more dramatic in the tumor cells than in the CAFs
[1]
  tumor cell killing (reduction in area of tumor cells): dramatic effects on tumor cell killing observed at lower doses than in a monolayer

## CCCCCCCCCC(=CC1=C(C)C(=O)C(OC)=C(OC)C1=O)C(=O)O [APX3330]
[2]
  killing of tumor spheroids: effectively killed both tumor spheroids alone and in culture with CAFs
CA9 protein
  CA9 expression (protein): decreased CA9 expression in 3D tumor cultures in a dose-dependent manner
Pa02C cells
  PDAC cell proliferation: dose-dependent decrease
CA9 mRNA [3]
  CA9 mRNA levels: decreases
CA9 mRNA [4]; Pa03C cells
  CA9 mRNA levels: attenuated in a dose-dependent manner
CA9 mRNA [4]; pancreatic CAF cells
  CA9 mRNA levels: attenuated in a dose-dependent manner
[1]
  tumor cell killing (reduction in area of tumor cells): decrease in tumor cell area

## CC(C)C(C(=O)N(Cc1ccc(C2CCCCC2)cc1)c1ccc(C(=O)O)cc1)N(C)S(=O)(=O)c1c(F)c(F)c(F)c(F)c1F (centres unmarked) [PG-S3-001, reference compound]
[2]
  killing of tumor spheroids: effectively killed both tumor spheroids alone and in culture with CAFs
PDAC
  activity in vivo: some activity was observed in vivo
